Reference: patent publication US12685315B2, “Herbicidal combination” (UPL do Brasil Industria e Comercio de Insumos Agropecuarios …, priority 2019, dated 2026)

Tests used:
[1] = system: Digitaria insularis; assay: Field trial of triple mixes of amicarbazone, post-emergence weed control; type: in vivo; details: dose g ai/ha: Amicarbazone 75, S-metolachlor 300, Atrazine 250, mix 75 + 300 + 250
Protocol: (§1) Field trials were done to evaluate the efficacy and synergism of the triple mixes of amicarbazone with other herbicides for the control of weeds in pre and post-emergence application.
(§2) The composition of the present invention was applied. This test was performed for species of weeds: Grasses namely BRADC=Brachiaria decumbens, CCHEC=Cenchrus echinatus, ELEIN=Eleusine indica, TRCIN=Digitaria insularis and Broadleaves namely IAQGR=Ipomoea grandifolia, EPHHL=Euphorbia heterophylla, COMBE=Commelina benghalensis. Data were collected at various period after application of the composition to the soil and calculated.

[2] = system: Brachiaria decumbens (BRADC); assay: Field trial of triple mixes of amicarbazone, pre and post-emergence weed control; type: in vivo
Protocol: as §1, §2

[3] = system: Cenchrus echinatus (CCHEC); assay: as above; type: in vivo
Protocol: as §1, §2

[4] = system: Eleusine indica; assay: as above; type: in vivo; details: Table 8, dose g ai/ha: Amicarbazone 250, Sulfentrazone 150, Diuron 250, mix 250 + 150 + 250
Protocol: as §1, §2

[5] = system: Euphorbia heterophylla; assay: Field trial of triple mixes of amicarbazone, pre-emergence weed control; type: in vivo; details: dose g ai/ha: Amicarbazone 250, Sulfentrazone 150, Diuron 250, mix 250 + 150 + 250
Protocol: as §1, §2

[6] = system: Ipomoea grandifolia (IAQGR); assay: as above; type: in vivo
Protocol: as §1, §2

[7] = system: yellow nutsedge; assay: Field trial, post emergence, efficacy on yellow nutsedge (Blacksburg, VA); type: in vivo, Cyperus esculentus; details: 2-way mixes 0.5X, 3-way mix 0.33X; for Yellow nut sedge at 29 DAT (Percentage weed cover): dosage: singles 1X; for Yellow nut sedge at 29 DAT (Percentage Control): post emergence, dosage: singles 1 X
Protocol: A field trial was conducted to evaluate effectiveness of the combinations of three active ingredients according to the invention when used post emergence, at different rates, compared to industry standards—stand alone and 2 way mixture molecules for efficacy of yellow nutsedge. The active ingredient combination used in the trial was bentazon+halosulfuron+sulfentrazone. The trial was conducted in Blacksburg, VA and was initiated on June 6 under given protocol. The plots were in fallow area primarily covered with yellow nutsedge and tall fescue and were sprayed at 4 week intervals. (2 applications total). The application dosages of the herbicides, when used in isolation and when used in the combinations were as follows: […]

[8] = Table 5, Post-Emergence, 21 DAA, dose g ai/ha: Amicarbazone 250, Clomazone 250, Diuron 250, mix 250 + 250 + 250
[9] = Table 5, Post-Emergence, 28 DAA, dose g ai/ha: Amicarbazone 250, Clomazone 250, Diuron 250, mix 250 + 250 + 250
[10] = Table 5, Post-Emergence, 35 DAA, dose g ai/ha: Amicarbazone 250, Clomazone 250, Diuron 250, mix 250 + 250 + 250
[11] = Table 5, Pre-Emergence, 21 DAA, dose g ai/ha: Amicarbazone 250, Clomazone 250, Diuron 250, mix 250 + 250 + 250
[12] = Table 5, Pre-Emergence, 28 DAA, dose g ai/ha: Amicarbazone 250, Clomazone 250, Diuron 250, mix 250 + 250 + 250
[13] = Table 5, Pre-Emergence, 35 DAA, dose g ai/ha: Amicarbazone 250, Clomazone 250, Diuron 250, mix 250 + 250 + 250
[14] = Table 6, Post-Emergence, 21 DAA, dose g ai/ha: Amicarbazone 250, Sulfentrazone 150, Diuron 250, mix 250 + 150 + 250
[15] = Table 6, Post-Emergence, 28 DAA, dose g ai/ha: Amicarbazone 250, Sulfentrazone 150, Diuron 250, mix 250 + 150 + 250
[16] = Table 6, Post-Emergence, 35 DAA, dose g ai/ha: Amicarbazone 250, Sulfentrazone 150, Diuron 250, mix 250 + 150 + 250
[17] = Table 6, Pre-Emergence, 21 DAA, dose g ai/ha: Amicarbazone 250, Sulfentrazone 150, Diuron 250, mix 250 + 150 + 250
[18] = Table 6, Pre-Emergence, 28 DAA, dose g ai/ha: Amicarbazone 250, Sulfentrazone 150, Diuron 250, mix 250 + 150 + 250
[19] = Table 6, Pre-Emergence, 35 DAA, dose g ai/ha: Amicarbazone 250, Sulfentrazone 150, Diuron 250, mix 250 + 150 + 250
[20] = Table 4, 7 DAA, dose g ai/ha: Amicarbazone 250, Clomazone 250, Diuron 250, mix 250 + 250 + 250
[21] = Table 4, 14 DAA, dose g ai/ha: Amicarbazone 250, Clomazone 250, Diuron 250, mix 250 + 250 + 250
[22] = Table 4, 28 DAA, dose g ai/ha: Amicarbazone 250, Clomazone 250, Diuron 250, mix 250 + 250 + 250
[23] = Table 1, Post-Emergence, 7 DAA, dose g ai/ha: Amicarbazone 75, Isoxaflutole 15, Atrazine 250, mix 75 + 15 + 250
[24] = Table 1, Post-Emergence, 21 DAA, dose g ai/ha: Amicarbazone 75, Isoxaflutole 15, Atrazine 250, mix 75 + 15 + 250
[25] = Table 1, Post-Emergence, 28 DAA, dose g ai/ha: Amicarbazone 75, Isoxaflutole 15, Atrazine 250, mix 75 + 15 + 250
[26] = Table 1, Pre-Emergence, 7 DAA, dose g ai/ha: Amicarbazone 75, Isoxaflutole 15, Atrazine 250, mix 75 + 15 + 250
[27] = Table 1, Pre-Emergence, 21 DAA, dose g ai/ha: Amicarbazone 75, Isoxaflutole 15, Atrazine 250, mix 75 + 15 + 250
[28] = Table 1, Pre-Emergence, 28 DAA, dose g ai/ha: Amicarbazone 75, Isoxaflutole 15, Atrazine 250, mix 75 + 15 + 250
[29] = Table 2, Post-Emergence, 7 DAA, dose g ai/ha: Amicarbazone 75, Isoxaflutole 15, Atrazine 250, mix 75 + 15 + 250
[30] = Table 2, Post-Emergence, 28 DAA, dose g ai/ha: Amicarbazone 75, Isoxaflutole 15, Atrazine 250, mix 75 + 15 + 250
[31] = Table 2, Post-Emergence, 35 DAA, dose g ai/ha: Amicarbazone 75, Isoxaflutole 15, Atrazine 250, mix 75 + 15 + 250
[32] = Table 3, 14 DAA, dose g ai/ha: Amicarbazone 75, Isoxaflutole 15, Atrazine 250, mix 75 + 15 + 250
[33] = Table 3, 21 DAA, dose g ai/ha: Amicarbazone 75, Isoxaflutole 15, Atrazine 250, mix 75 + 15 + 250
[34] = Table 3, 28 DAA, dose g ai/ha: Amicarbazone 75, Isoxaflutole 15, Atrazine 250, mix 75 + 15 + 250

Compound: CCc1cccc(C)c1N(C(=O)CCl)[C@@H](C)COC [S-metolachlor]
- % Control ([1]; Table 9, 21 DAA): 0.0%
- % Control ([1]; Table 9, 28 DAA): 0.0%
- % Control ([1]; Table 9, 35 DAA): 0.0%

Compound: CN(C)C(=O)Nc1ccc(Cl)c(Cl)c1 [Diuron]
- % Control [2, 8]: 81.3%
- % Control [2, 9]: 75.0%
- % Control [2, 10]: 76.3%
- % Control [2, 11]: 0.0%
- % Control [2, 12]: 0.0%
- % Control [2, 13]: 0.0%
- % Control [3, 14]: 38.8%
- % Control [3, 15]: 35.0%
- % Control [3, 16]: 28.8%
- % Control [3, 17]: 0.0%
- % Control [3, 18]: 0.0%
- % Control [3, 19]: 0.0%
- % Control ([4]; Post-Emergence, 14 DAA): 53.8%
- % Control ([4]; Post-Emergence, 21 DAA): 35.0%
- % Control ([4]; Post-Emergence, 28 DAA): 30.0%
- % Control ([4]; Pre-Emergence, 14 DAA): 0.0%
- % Control ([4]; Pre-Emergence, 21 DAA): 0.0%
- % Control ([4]; Pre-Emergence, 28 DAA): 0.0%
- % Control ([5]; Table 7, 7 DAA): 0.0%
- % Control ([5]; Table 7, 14 DAA): 0.0%
- % Control ([5]; Table 7, 21 DAA): 0.0%
- % Control [6, 20]: 10.0%
- % Control [6, 21]: 0.0%
- % Control [6, 22]: 0.0%

Compound: CCNc1nc(Cl)nc(NC(C)C)n1 [Atrazine]
- % Control [2, 23]: 37.5%
- % Control [2, 24]: 21.3%
- % Control [2, 25]: 23.8%
- % Control [2, 26]: 0.0%
- % Control [2, 27]: 0.0%
- % Control [2, 28]: 0.0%
- % Control [3, 29]: 47.5%
- % Control [3, 30]: 26.3%
- % Control [3, 31]: 23.8%
- % Control ([1]; Table 9, 21 DAA): 21.3%
- % Control ([1]; Table 9, 28 DAA): 13.8%
- % Control ([1]; Table 9, 35 DAA): 7.5%
- % Control [6, 32]: 0.0%
- % Control [6, 33]: 0.0%
- % Control [6, 34]: 0.0%

Compound: Cc1nn(-c2cc(NS(C)(=O)=O)c(Cl)cc2Cl)c(=O)n1C(F)F [Sulfentrazone]
- % Control [3, 14]: 86.3%
- % Control [3, 15]: 83.8%
- % Control [3, 16]: 82.5%
- % Control [3, 17]: 17.5%
- % Control [3, 18]: 13.8%
- % Control [3, 19]: 9.5%
- % Control ([4]; Post-Emergence, 14 DAA): 70.0%
- % Control ([4]; Post-Emergence, 21 DAA): 63.8%
- % Control ([4]; Post-Emergence, 28 DAA): 55.0%
- % Control ([4]; Pre-Emergence, 14 DAA): 93.3%
- % Control ([4]; Pre-Emergence, 21 DAA): 96.5%
- % Control ([4]; Pre-Emergence, 28 DAA): 92.0%
- Yellow nut sedge at 29 DAT (Percentage weed cover) ([7]; 05/07, untreated 59): 9%
- Yellow nut sedge at 29 DAT (Percentage Control) ([7]; 05/07): 75%
- Yellow nut sedge at 29 DAT (Percentage weed cover) ([7]; 13/06, untreated 50): 44%
- Yellow nut sedge at 29 DAT (Percentage Control) ([7]; 13/06): 58%
- Yellow nut sedge at 29 DAT (Percentage weed cover) ([7]; 20/6, untreated 49): 11%
- Yellow nut sedge at 29 DAT (Percentage Control) ([7]; 20/6): 73%
- % Control ([5]; Table 7, 7 DAA): 0.0%
- % Control ([5]; Table 7, 14 DAA): 10.0%
- % Control ([5]; Table 7, 21 DAA): 17.5%

Compound: CS(=O)(=O)c1cc(C(F)(F)F)ccc1C(=O)c1cnoc1C1CC1 [Isoxaflutole]
- % Control [2, 23]: 66.3%
- % Control [2, 24]: 65.0%
- % Control [2, 25]: 68.8%
- % Control [2, 26]: 86.3%
- % Control [2, 27]: 53.8%
- % Control [2, 28]: 50.0%
- % Control [3, 29]: 68.8%
- % Control [3, 30]: 91.3%
- % Control [3, 31]: 93.3%
- % Control [6, 32]: 15.0%
- % Control [6, 33]: 0.0%
- % Control [6, 34]: 0.0%

Compound: CC(C)N1C(=O)c2ccccc2NS1(=O)=O [Bentazone]
- Yellow nut sedge at 29 DAT (Percentage weed cover) ([7]; 05/07, untreated 59): 10%
- Yellow nut sedge at 29 DAT (Percentage Control) ([7]; 05/07): 76%
- Yellow nut sedge at 29 DAT (Percentage weed cover) ([7]; 13/06, untreated 50): 40%
- Yellow nut sedge at 29 DAT (Percentage Control) ([7]; 13/06): 65%
- Yellow nut sedge at 29 DAT (Percentage weed cover) ([7]; 20/6, untreated 49): 8%
- Yellow nut sedge at 29 DAT (Percentage Control) ([7]; 20/6): 75%

Compound: CC1(C)CON(Cc2ccccc2Cl)C1=O [Clomazone]
- % Control [2, 8]: 71.3%
- % Control [2, 9]: 63.8%
- % Control [2, 10]: 61.3%
- % Control [2, 11]: 89.5%
- % Control [2, 12]: 86.5%
- % Control [2, 13]: 86.3%
- % Control [6, 20]: 57.5%
- % Control [6, 21]: 41.3%
- % Control [6, 22]: 39.5%

Compound: COc1cc(OC)nc(NC(=O)NS(=O)(=O)c2c(C(=O)O)c(Cl)nn2C)n1 [Halosulfuron]
- Yellow nut sedge at 29 DAT (Percentage weed cover) ([7]; 05/07, untreated 59): 8%
- Yellow nut sedge at 29 DAT (Percentage Control) ([7]; 05/07): 81%
- Yellow nut sedge at 29 DAT (Percentage weed cover) ([7]; 13/06, untreated 50): 50%
- Yellow nut sedge at 29 DAT (Percentage Control) ([7]; 13/06): 36%
- Yellow nut sedge at 29 DAT (Percentage weed cover) ([7]; 20/6, untreated 49): 16%
- Yellow nut sedge at 29 DAT (Percentage Control) ([7]; 20/6): 60%
